Patent US20040198663A1, “Method of treating cardiac ischemia by using erythropoietin” (priority 2003, published 2004)

System: adult male Sprague Dawley rat hearts
Assay: Coronary artery ligation model, isolated perfused heart, 30 min regional ischemia and 3 hours reperfusion
Conditions: erythropoietin 1.0 U/ml 15 minutes prior to regional ischemia, vs control
Description: Animals used in this study were adult male Sprague Dawley rats (200-350 g, generally 300 g). Animals were housed under standard conditions and allowed to feed ad lib. The Animal Care and Use Committee of the Medical College of Wisconsin approved all procedures performed in accordance with the regulations adopted by the National Institutes of Health.
A myocardial infarction was produced via the ligation of the left main artery using 6-0 prolene suture (See, e.g., Clements-Jewery et al., Br J Pharmacol. 135:807-815, 2002; Farkas et al., J Cardiovasc Pharmacol. 39,412-424, 2002). Rats were anesthetized with sodium pentobarbital (50 mg/kg i.p.). Heparin was then administered (150 U/kg i.p.) to prevent the formation of a thrombus in the coronary vasculature. The heart was then excised and perfused retrogradely with bicarbonate buffer at a pressure of 80 mmHg. (See e.g., Baker et al., Am J Physiol 278, H1395-H1400, 2000). The perfusate was not recirculated. […]
The heart was sectioned in 2 mm segments from apex to atrio-ventricular groove in a transverse fashion. Each segment was recorded and placed in formalin. […] The percentage of infarction of each slide was expressed as a percentage of the entire area of the heart.

erythropoietin: Recombinant human erythropoietin, a glycoprotein hormone, obtained from Cell Science, Inc.
myocardial infarct size: decrease in myocardial infarct size
